Reference: patent publication US4753965A, “Method of treating multiple sclerosis with chalcone derivatives” (Merrell Dow Pharmaceuticals, Inc., priority 1987, dated 1988)
In brackets after ≈: the same amount, converted by molar mass.

Legend:
[1] = tested on: Experimental Allergic Encephalomyelitis (EAE); test: Experimental Allergic Encephalomyelitis (EAE) in rats; format: in vivo, Lewis strain rats
Method: Effect of α-methyl-4-dimethylamino-2',5'-dimethoxychalcone on Experimental Allergic Encephalomyelitis (EAE) in Rats
EAE was induced in rats as described by Rosenthal and Nagra, Proc. Soc.
Lewis strain rats ranging in weight
from 100-200 g were sensitized with encephalitogenic emulsion consisting
of homogenized spinal cord in complete Freund's adjuvant. The test
compound and hydrocortisone (HC) were administered in
polyvinylpyrrolidone vehicle. The test compound was administered i.p.
once daily from day 1 through day 10. HC was administered s.c. once
every other day from day 1 through day 10. The incidence of paralysis
was recorded and mean paralysis time was calculated.

HeLa cells = test: Growth inhibition of HeLa cells; format: cell-based; details: Homo sapiens, 72 hours
Method: The compounds of structure 1 inhibit the polymerization of tubulin, and thus the formation of microtubules, that ubiquitous substance of eukaryotic cells which serves a variety of functions, most importantly, to separate the duplicated sets of chromosomes during cell mitosis.
For growth inhibition studies, exponentially growing HeLa cells
were incubated at a density of 1 × 10^5 cells/35 mm dish with
number of dilutions of the test compound in the medium. The
plates were incubated at 37° C. in a CO2 incubation. At the
of 72 hours the cells were collected by trypinization and
counted and the IC50 (.upsilon.g/ml) was determined.

[2] = 6.25 mg/kg i.p. once daily day 1 through day 10
[3] = 12.5 mg/kg i.p. once daily day 1 through day 10
[4] = 25.0 mg/kg i.p. once daily day 1 through day 10

Row | Compound | PARALYSIS TIME (Mean ± S.E.) [1, 2] | PERCENT INCIDENCE OF PARALYSIS [1, 2] | number paralyzed/total number of animals [1, 2] | PARALYSIS TIME (Mean ± S.E.) [1, 3] | PERCENT INCIDENCE OF PARALYSIS [1, 3] | number paralyzed/total number of animals [1, 3] | PARALYSIS TIME (Mean ± S.E.) [1, 4] | PERCENT INCIDENCE OF PARALYSIS [1, 4] | number paralyzed/total number of animals [1, 4] | IC50 (HeLa cells) | number paralyzed/total number of animals ([1]; 25.0 mg/kg s.c. once every other day day 1 through day 10)
1 | COc1ccc(OC)c(C(=O)C(C)=Cc2ccc(N(C)C)cc2)c1 [COMPOUND, 1-(2,5-dimethoxyphenyl)-3-[4-(dimethylamino)phenyl]-2-methyl-2-propen-1-one] | 9.7 ± 0.36 days | 90% | 9/10 | 9.4 ± 0.26 days | 80% | 8/10 | 10.8 ± 0.54 days | 40% | 7/18 | 0.015 µg/mL (≈ 0.0461 µM) | –
2 | C[C@]12CCC(=O)C=C1CC[C@@H]1[C@@H]2[C@@H](O)C[C@@]2(C)[C@H]1CC[C@]2(O)C(=O)CO [HYDROCORTISONE, hydrocortisone, reference compound] | – | – | – | – | – | – | – | – | – | – | 14/19
